ChEMBL document CHEMBL1201862, “PubChem BioAssay data set” (2004)
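Compound exposure: 48 hours, 5 concentrations, 96-well plates. GI50 is the concentration that inhibits growth by half.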 Active and inactive are the calls of the source. No stated cut-off is given here; in the data, active = GI50 up to about 1.1 µM and inactive = higher.

What was measured:
Test in all cases: NCI-60 cell line screen, 48 h
[1] = test system: 786-0
[2] = test system: A498
[3] = test system: A549
[4] = test system: ACHN
[5] = test system: CAKI-1
[6] = test system: CCRF-CEM
[7] = test system: COLO 205
[8] = test system: DLD-1
[9] = test system: DMS-114
[10] = test system: DMS-273
[11] = test system: EKVX
[12] = test system: HCC 2998
[13] = test system: HCT-116
[14] = test system: HCT-15
[15] = test system: HOP-18
[16] = test system: HOP-62
[17] = test system: HOP-92
[18] = test system: HT-29
[19] = test system: IGROV-1
[20] = test system: K562
[21] = test system: KM-20L2
[22] = test system: LOX IMVI
[23] = test system: LXFL 529
[24] = test system: M14
[25] = test system: M19-MEL
[26] = test system: MOLT-4
[27] = test system: Malme-3M
[28] = test system: NCI-H226
[29] = test system: NCI-H23
[30] = test system: NCI-H522
[31] = test system: OVCAR-3
[32] = test system: OVCAR-4
[33] = test system: OVCAR-5
[34] = test system: OVCAR-8
[35] = test system: RPMI-8226
[36] = test system: SF-268
[37] = test system: SF-295
[38] = test system: SF-539
[39] = test system: SK-MEL-28
[40] = test system: SK-MEL-2
[41] = test system: SK-MEL-5
[42] = test system: SK-OV-3
[43] = test system: SN12C
[44] = test system: SNB-19
[45] = test system: SNB-75
[46] = test system: SNB-78
[47] = test system: SW-620
[48] = test system: TK-10
[49] = test system: U-251
[50] = test system: UACC-257
[51] = test system: UACC-62
[52] = test system: UO-31
[53] = test system: HL-60
[54] = test system: NCI-H460
[55] = test system: RXF 393
[56] = test system: SR
[57] = test system: XF498
[58] = test system: KM12

## O=C(Nc1ccc(Cl)c(Cl)c1)C1C(=O)N(c2ccc(Cl)c(Cl)c2)C(=O)/C1=N\O (stereo unspecified)
[1]
  GI50: 44.5 µM (inactive)
[2]
  GI50: > 100 µM (inactive)
[3]
  GI50: 36.6 µM (inactive)
[4]
  GI50: > 100 µM (inactive)
[5]
  GI50: > 100 µM (inactive)
[6]
  GI50: 42.1 µM (inactive)
[7]
  GI50: 19.3 µM (inactive)
[8]
  GI50: > 100 µM (inactive)
[9]
  GI50: 30.3 µM (inactive)
[10]
  GI50: > 100 µM (inactive)
[11]
  GI50: 39.6 µM (inactive)
[12]
  GI50: > 100 µM (inactive)
[13]
  GI50: 32.6 µM (inactive)
[14]
  GI50: > 100 µM
[15]
  GI50: > 100 µM (inactive)
[16]
  GI50: > 100 µM (inactive)
[17]
  GI50: > 100 µM (inactive)
[18]
  GI50: 39.4 µM (inactive)
[19]
  GI50: > 100 µM (inactive)
[20]
  GI50: 16.9 µM (inactive)
[21]
  GI50: 43.5 µM (inactive)
[22]
  GI50: 24.5 µM (inactive)
[23]
  GI50: > 100 µM (inactive)
[24]
  GI50: 22.9 µM (inactive)
[25]
  GI50: 31.8 µM (inactive)
[26]
  GI50: > 100 µM (inactive)
[27]
  GI50: > 100 µM (inactive)
[28]
  GI50: 50.5 µM (inactive)
[29]
  GI50: > 100 µM (inactive)
[30]
  GI50: 27.4 µM (inactive)
[31]
  GI50: > 100 µM (inactive)
[32]
  GI50: 70.1 µM (inactive)
[33]
  GI50: > 100 µM (inactive)
[34]
  GI50: > 100 µM (inactive)
[35]
  GI50: > 100 µM (inactive)
[36]
  GI50: > 100 µM (inactive)
[37]
  GI50: 73.5 µM (inactive)
[38]
  GI50: > 100 µM (inactive)
[39]
  GI50: 25.6 µM (inactive)
[40]
  GI50: > 100 µM (inactive)
[41]
  GI50: > 100 µM (inactive)
[42]
  GI50: > 100 µM (inactive)
[43]
  GI50: 61.8 µM (inactive)
[44]
  GI50: > 100 µM (inactive)
[45]
  GI50: > 100 µM (inactive)
[46]
  GI50: > 100 µM (inactive)
[47]
  GI50: 49 µM (inactive)
[48]
  GI50: > 100 µM (inactive)
[49]
  GI50: 66.8 µM (inactive)
[50]
  GI50: 51.2 µM (inactive)
[51]
  GI50: > 100 µM (inactive)
[52]
  GI50: > 100 µM (inactive)

## CC(=O)OCC1OC(N2C(=O)[C@@H](Oc3ccccc3)[C@H]2/C=C/c2ccccc2)C(OC(C)=O)C(OC(C)=O)C1OC(C)=O (stereo partly specified)
[1]
  GI50: > 100 µM (inactive)
[2]
  GI50: 72.4 µM (inactive)
[3]
  GI50: > 100 µM (inactive)
[4]
  GI50: > 100 µM (inactive)
[6]
  GI50: > 100 µM (inactive)
[7]
  GI50: > 100 µM (inactive)
[8]
  GI50: > 100 µM (inactive)
[9]
  GI50: > 100 µM (inactive)
[10]
  GI50: > 100 µM (inactive)
[11]
  GI50: > 100 µM (inactive)
[12]
  GI50: > 100 µM (inactive)
[13]
  GI50: > 100 µM (inactive)
[14]
  GI50: > 100 µM
[53]
  GI50: > 100 µM (inactive)
[16]
  GI50: 40.1 µM (inactive)
[17]
  GI50: 44.5 µM (inactive)
[18]
  GI50: > 100 µM (inactive)
[19]
  GI50: > 100 µM (inactive)
[20]
  GI50: > 100 µM (inactive)
[21]
  GI50: > 100 µM (inactive)
[22]
  GI50: > 100 µM (inactive)
[23]
  GI50: > 100 µM (inactive)
[24]
  GI50: > 100 µM (inactive)
[25]
  GI50: > 100 µM (inactive)
[26]
  GI50: > 100 µM (inactive)
[27]
  GI50: > 100 µM (inactive)
[28]
  GI50: > 100 µM (inactive)
[29]
  GI50: > 100 µM (inactive)
[54]
  GI50: > 100 µM (inactive)
[30]
  GI50: > 100 µM (inactive)
[31]
  GI50: > 100 µM (inactive)
[32]
  GI50: > 100 µM (inactive)
[33]
  GI50: > 100 µM (inactive)
[34]
  GI50: > 100 µM (inactive)
[35]
  GI50: > 100 µM (inactive)
[55]
  GI50: > 100 µM (inactive)
[36]
  GI50: 72.4 µM (inactive)
[37]
  GI50: 53.6 µM (inactive)
[38]
  GI50: > 100 µM (inactive)
[39]
  GI50: > 100 µM (inactive)
[40]
  GI50: > 100 µM (inactive)
[41]
  GI50: > 100 µM (inactive)
[42]
  GI50: > 100 µM (inactive)
[43]
  GI50: > 100 µM (inactive)
[44]
  GI50: 31.6 µM (inactive)
[45]
  GI50: 31.1 µM (inactive)
[46]
  GI50: > 100 µM (inactive)
[56]
  GI50: > 100 µM (inactive)
[47]
  GI50: > 100 µM (inactive)
[48]
  GI50: > 100 µM (inactive)
[49]
  GI50: 58.9 µM (inactive)
[50]
  GI50: > 100 µM (inactive)
[51]
  GI50: > 100 µM (inactive)
[52]
  GI50: > 100 µM (inactive)
[57]
  GI50: > 100 µM (inactive)

## COC(=O)CC1C[C@H](C#N)N(C(=O)c2ccccc2)C[C@@H]1CC[N+](=O)[O-] (stereo partly specified)
[1]
  GI50: > 100 µM (inactive)
[2]
  GI50: > 100 µM (inactive)
[3]
  GI50: > 100 µM (inactive)
[4]
  GI50: > 100 µM (inactive)
[6]
  GI50: > 100 µM (inactive)
[7]
  GI50: > 100 µM (inactive)
[8]
  GI50: > 100 µM (inactive)
[10]
  GI50: > 100 µM (inactive)
[11]
  GI50: > 100 µM (inactive)
[12]
  GI50: > 100 µM (inactive)
[13]
  GI50: > 100 µM (inactive)
[14]
  GI50: > 100 µM
[53]
  GI50: > 100 µM (inactive)
[15]
  GI50: > 100 µM (inactive)
[16]
  GI50: > 100 µM (inactive)
[17]
  GI50: > 100 µM (inactive)
[18]
  GI50: > 100 µM (inactive)
[19]
  GI50: > 100 µM (inactive)
[20]
  GI50: > 100 µM (inactive)
[21]
  GI50: > 100 µM (inactive)
[58]
  GI50: > 100 µM (inactive)
[22]
  GI50: > 100 µM (inactive)
[23]
  GI50: > 100 µM (inactive)
[24]
  GI50: > 100 µM (inactive)
[25]
  GI50: > 100 µM (inactive)
[26]
  GI50: > 100 µM (inactive)
[27]
  GI50: > 100 µM (inactive)
[29]
  GI50: > 100 µM (inactive)
[54]
  GI50: > 100 µM (inactive)
[31]
  GI50: > 100 µM (inactive)
[32]
  GI50: > 100 µM (inactive)
[33]
  GI50: > 100 µM (inactive)
[34]
  GI50: > 100 µM (inactive)
[35]
  GI50: > 100 µM (inactive)
[55]
  GI50: > 100 µM (inactive)
[36]
  GI50: > 100 µM (inactive)
[37]
  GI50: > 100 µM (inactive)
[38]
  GI50: > 100 µM (inactive)
[39]
  GI50: > 100 µM (inactive)
[40]
  GI50: 0.0546 µM (active)
[41]
  GI50: > 100 µM (inactive)
[42]
  GI50: > 100 µM (inactive)
[43]
  GI50: > 100 µM (inactive)
[44]
  GI50: > 100 µM (inactive)
[45]
  GI50: > 100 µM (inactive)
[46]
  GI50: > 100 µM (inactive)
[56]
  GI50: > 100 µM (inactive)
[47]
  GI50: > 100 µM (inactive)
[48]
  GI50: > 100 µM (inactive)
[49]
  GI50: > 100 µM (inactive)
[50]
  GI50: > 100 µM (inactive)
[51]
  GI50: > 100 µM (inactive)
[52]
  GI50: > 100 µM (inactive)
[57]
  GI50: > 100 µM (inactive)

## O=c1c2cc(O)ccc2n2nnc3ccc(NCCNCCO)c1c32
[1]
  GI50: 3.55 µM (inactive)
[5]
  GI50: 4.2 µM (inactive)
[7]
  GI50: 4.26 µM (inactive)
[9]
  GI50: 1.71 µM (inactive)
[11]
  GI50: 14.5 µM (inactive)
[13]
  GI50: 2.65 µM (inactive)
[14]
  GI50: 49.1 µM
[15]
  GI50: 24.3 µM (inactive)
[17]
  GI50: 2.06 µM (inactive)
[18]
  GI50: 6.62 µM (inactive)
[58]
  GI50: 11.2 µM (inactive)
[22]
  GI50: 1.71 µM (inactive)
[23]
  GI50: 1.86 µM (inactive)
[28]
  GI50: 2.31 µM (inactive)
[29]
  GI50: 5.92 µM (inactive)
[32]
  GI50: 3.84 µM (inactive)
[34]
  GI50: 1.86 µM (inactive)
[35]
  GI50: 14.1 µM (inactive)
[36]
  GI50: 1.59 µM (inactive)
[37]
  GI50: 11.7 µM (inactive)
[38]
  GI50: 3.85 µM (inactive)
[42]
  GI50: 5.4 µM (inactive)
[44]
  GI50: 4.85 µM (inactive)
[49]
  GI50: 1.82 µM (inactive)
[52]
  GI50: 16.3 µM (inactive)
